Results from paper PMC8067721 (Pharmaceutics, 2021).

What was measured:
[1] = tested on: NT receptors (NTRS1, NTRS2, NTRS3) on HT-29 cells; assay: In vitro specific binding / competition assay with all NT receptors blocked; set-up: species or system human; conditions: antagonists applied together: 70 nM NTRC 824, 30 nM SR 48692, 10 nM SR 142948, […]; uptake profile almost linear
Method: In order to evaluate the specific binding due to the exclusive interaction of the peptide with its receptors, a competition assay was performed. This assay in which all NT receptors are blocked before incubating the labelled peptide is intended to highlight non-specific binding of NT to the cells. […] For this assessment, three different NT receptors antagonists were used, each having a preferential increased affinity for one of the receptors, allowing the blocking of all NTRs at the same time:
Afterwards, the medium containing unbound antagonists was removed and the cells were washed with 2 mL of fresh DMEM medium.

[2] = tested on: HT-29 cells; set-up: method as in PMID 9023294; conditions: cited from earlier work
[3] = tested on: NTRS2; set-up: method as in PMID 25157640; conditions: cited from earlier work

Row | Compound | effect of antagonists on ^68Ga-DOTA-NT binding to colon HT-29 tumour cells [1] | inhibition of [^125I]ITyr^3-NT specific binding to HT-29 cells [2] | selectivity for NTRS2 over NTRS1 [3] [fold]
1 | 2-[[5-(2,6-dimethoxyphenyl)-1-(4-(N-(3-dimethylaminopropyl)-N-methylcabamoyl)-2-isopropylphenyl)-1H-pyrazole-3-carbonyl]amino]adamantane-2-carboxylic acid [SR 142948] | inhibit | completely inhibits | –
2 | Cc1ccc(S(=O)(=O)Nc2ccc3c(c2)c(C(=O)C(F)(F)F)cn3CC(=O)N[C@@H](CC(C)C)C(=O)O)cc1 [NTRC 824, N-[2-[5-[[(4-Methylphenyl)sulfonyl]amino]-3-(trifluoroacetyl)-1H-indol-1-yl]acetyl]-L-leucine] | inhibit | – | 150
3 | COc1cccc(OC)c1-c1cc(C(=O)NC2(C(=O)O)C3CC4CC(C3)CC2C4)nn1-c1ccnc2cc(Cl)ccc12 (centres unmarked) [SR 48692, 2-[[1-(7-chloroquinolin-4-yl)-5-(2,6-dimethoxyphenyl)-1H-pyrazol-3-carbonyl]amino] adamantane-2-carboxylic acid] | inhibit | – | –
